According to ChEMBL document CHEMBL4138247, “Synthesis of new triterpenic monomers and dimers as potential antiproliferative agents and their molecular docking studies” (Eur J Med Chem, 2018):

Columns and labels:
Assay type in all cases: functional, cell-based
FaDu = test: Antiproliferative activity against human FADU cells after 96 hrs by SRB assay
HT-29 = test: Antiproliferative activity against human HT-29 cells after 96 hrs by SRB assay; conditions: HT-29, 96 h
A-375 = test: Antiproliferative activity against human A375 cells after 96 hrs by SRB assay; conditions: A-375, 96 h
A2780 = test: Antiproliferative activity against human A2780 cells after 96 hrs by SRB assay; conditions: A2780, 96 h

Row | IC50 (HT-29) | IC50 (A-375) | IC50 (A2780) | Structure (SMILES) | IC50 (FaDu)
1 | 8.8 µM | 12.4 µM | 24.2 µM | C/C(=C\CC/C(C)=C/CC[C@@H]1[C@@]2(C)CCC(=O)C(C)(C)[C@@H]2CC[C@@]1(C)O)CC/C=C(\C)C(=O)OCCCCOC(=O)/C(C)=C/CC/C(C)=C/CC/C(C)=C/CC[C@@H]1[C@@]2(C)CCC(=O)C(C)(C)[C@@H]2CC[C@@]1(C)O | > 30 µM
2 | > 30 µM | > 30 µM | > 30 µM | C/C(=C\CC/C(C)=C/CC[C@@H]1[C@@]2(C)CCC(=O)C(C)(C)[C@@H]2CC[C@@]1(C)O)CC/C=C(\C)C(=O)OCCCCOC(=O)[C@@]1(C)[C@H](O)CC[C@@]2(C)[C@H]1CC[C@]1(C)[C@@H]2C(=O)C=C2[C@@H]3[C@@H](C)[C@H](C)CC[C@]3(C)CC[C@]21C | > 30 µM
3 | > 30 µM | > 30 µM | > 30 µM | C/C(=C\CC/C(C)=C/CC[C@@H]1[C@@]2(C)CCC(=O)C(C)(C)[C@@H]2CC[C@@]1(C)O)CC/C=C(\C)C(=O)OCCOC(=O)[C@@]1(C)[C@H](O)CC[C@@]2(C)[C@H]1CC[C@]1(C)[C@@H]2C(=O)C=C2[C@@H]3[C@@H](C)[C@H](C)CC[C@]3(C)CC[C@]21C | > 30 µM
4 | > 30 µM | 18 µM | > 30 µM | C=C(C)[C@@H]1CC[C@]2(C)CC[C@]3(C)[C@H](CC[C@@H]4[C@@]5(C)CC[C@@H](O)[C@](C)(C(=O)OCCCCBr)[C@@H]5CC[C@]43C)[C@@H]12 | > 30 µM
5 | 10 µM | 15.5 µM | 20.7 µM | C/C(=C\CC/C(C)=C/CC[C@@H]1[C@@]2(C)CCC(=O)C(C)(C)[C@@H]2CC[C@@]1(C)O)CC/C=C(\C)C(=O)OCCOC(=O)/C(C)=C/CC/C(C)=C/CC/C(C)=C/CC[C@@H]1[C@@]2(C)CC[C@@H](O)C(C)(C)[C@@H]2CC[C@@]1(C)O | > 30 µM
6 | 5.4 µM | 10.4 µM | 16 µM | C/C(=C\CC/C(C)=C/CC[C@@H]1[C@@]2(C)CCC(=O)C(C)(C)[C@@H]2CC[C@@]1(C)O)CC/C=C(\C)C(=O)OCCCOC(=O)/C(C)=C/CC/C(C)=C/CC/C(C)=C/CC[C@@H]1[C@@]2(C)CCC(=O)C(C)(C)[C@@H]2CC[C@@]1(C)O | > 30 µM
7 | > 30 µM | > 30 µM | > 30 µM | C/C(=C\CC/C(C)=C/CC[C@@H]1[C@@]2(C)CCC(=O)C(C)(C)[C@@H]2CC[C@@]1(C)O)CC/C=C(\C)C(=O)OCCBr | > 30 µM
8 | 6.8 µM | 11.1 µM | 14.8 µM | C/C(=C\CC/C(C)=C/CC[C@@H]1[C@@]2(C)CCC(=O)C(C)(C)[C@@H]2CC[C@@]1(C)O)CC/C=C(\C)C(=O)OCCCOC(=O)/C(C)=C/CC/C(C)=C/CC/C(C)=C/CC[C@@H]1[C@@]2(C)CC[C@@H](O)C(C)(C)[C@@H]2CC[C@@]1(C)O | 25.1 µM
9 | > 30 µM | > 30 µM | > 30 µM | C=C(C)[C@@H]1CC[C@]2(C(=O)OCCCCOC(=O)/C(C)=C/CC/C(C)=C/CC/C(C)=C/CC[C@@H]3[C@@]4(C)CCC(=O)C(C)(C)[C@@H]4CC[C@@]3(C)O)CC[C@]3(C)[C@H](CC[C@@H]4[C@@]5(C)CC[C@H](O)C(C)(C)[C@@H]5CC[C@]43C)[C@@H]12 | > 30 µM
10 | 14 µM | 24.5 µM | > 30 µM | C/C(=C\CC/C(C)=C/CC[C@@H]1[C@@]2(C)CCC(=O)C(C)(C)[C@@H]2CC[C@@]1(C)O)CC/C=C(\C)C(=O)OCCOC(=O)/C(C)=C/CC/C(C)=C/CC/C(C)=C/CC[C@@H]1[C@@]2(C)CCC(=O)C(C)(C)[C@@H]2CC[C@@]1(C)O | > 30 µM
11 | 14.6 µM | 14.5 µM | 21.6 µM | C/C(=C\CC/C(C)=C/CC[C@@H]1[C@@]2(C)CCC(=O)C(C)(C)[C@@H]2CC[C@@]1(C)O)CC/C=C(\C)C(=O)OCCCCBr | > 30 µM
12 | 8.2 µM | 10.6 µM | 16.1 µM | C/C(=C\CC/C(C)=C/CC[C@@H]1[C@@]2(C)CCC(=O)C(C)(C)[C@@H]2CC[C@@]1(C)O)CC/C=C(\C)C(=O)OCCCCOC(=O)/C(C)=C/CC/C(C)=C/CC/C(C)=C/CC[C@@H]1[C@@]2(C)CC[C@H](O)C(C)(C)[C@@H]2CC[C@@]1(C)O | 28.2 µM
13 | 8.1 µM | 11.8 µM | 18.1 µM | C/C(=C\CC/C(C)=C/CC[C@@H]1[C@@]2(C)CCC(=O)C(C)(C)[C@@H]2CC[C@@]1(C)O)CC/C=C(\C)C(=O)OCCCBr | > 30 µM
14 | 24.5 µM | 16.7 µM | 26.9 µM | C=C(C)[C@@H]1CC[C@]2(C)CC[C@]3(C)[C@H](CC[C@@H]4[C@@]5(C)CC[C@@H](O)[C@](C)(C(=O)OCCCBr)[C@@H]5CC[C@]43C)[C@@H]12 | 27.1 µM
15 | 23 µM | 17.4 µM | 29 µM | C=C(C)[C@@H]1CC[C@]2(C)CC[C@]3(C)[C@H](CC[C@@H]4[C@@]5(C)CC[C@@H](O)[C@](C)(C(=O)OCCBr)[C@@H]5CC[C@]43C)[C@@H]12 | 26.4 µM
16 | > 30 µM | > 30 µM | > 30 µM | C/C(=C\CC/C(C)=C/CC[C@@H]1[C@@]2(C)CCC(=O)C(C)(C)[C@@H]2CC[C@@]1(C)O)CC/C=C(\C)C(=O)OCCCOC(=O)[C@@]1(C)[C@H](O)CC[C@@]2(C)[C@H]1CC[C@]1(C)[C@@H]2C(=O)C=C2[C@@H]3[C@@H](C)[C@H](C)CC[C@]3(C)CC[C@]21C | > 30 µM
